# Positions count from the first letter of the chain named. Where two headings read alike, the source gives them in different places.
# Tests used:
# LNCaP cells = experiment: Cell growth inhibition (MTT colorimetric assay), LNCaP; assay type: cell-based, human; conditions: for GI50: LNCaP (mutant AR), MTT, means of three experiments, called IC50, read-out: Cytotoxicity GI50 (nM) LNCaP
# Excerpt: (§1) Lead optimization of BTB01434 and further biological studies: BTB01434 (Maybridge) was used as a lead molecule to synthesize new molecules. Although this compound was not as potent as some of the others (cf. Table 4), it was chosen for its ease of modification. New compounds (6-23) were developed using the diaryl sulfonamide compound BTB01434 (FIG. 6) as a scaffold. […] Including new BTB01434 analogs, including diaryl sulfonamide analogs bearing various substituents on the phenyl rings (series A), aryl amide analogs (series B), and amine analogs (series C). These new compounds were evaluated for cell growth inhibition in two human prostate cancer cell lines, (LNCaP and PC-3) by MTT assay. Based on the structures and anti-prostate cancer activities of the new compounds, a structure-activity relationship (SAR) was formulated.
# Androgen-dependent LNCaP cells were obtained from American Type Culture Collection (Rockville, Md., USA). Cells were maintained in RPMI 1640 medium supplemented with 10% fetal bovine serum (Atlanta Biologicals, Lawrenceville, Ga., USA) and 1% penicillin/streptomycin. Cells were grown as a monolayer in T75 or T150 tissue culture flasks in a humidified incubator (5% CO2, 95% air) at 37° C.
# (§2) LNCaP cells were seeded in 24 well plates (Corning Costar) at a density of 2×10^4 cells per well per 1 mL of medium. Cell were allowed to adhere to the plate for 24 hours and then treated with different concentrations of ARDAs dissolved in DMSO. Cells were treated for five days with renewal of ARDA and media on day 3. On the fifth day, medium was renewed and 100 μL of MTT (3-(4,5-dimethylthiazol-2-yl)-2,5-diphenyl-2H-tetrazolium bromide from Sigma) solution (0.5 mg MTT/mL of medium) was added to the medium such that the ratio of MTT:medium was 1:10. The cells were incubated with MTT for 2 hours. The medium was then aspirated and 500 μL of DMSO was added to solubilize the violet MTT-formazan product. The absorbance at 560 nm was measured by spectrophotometry (Victor 1420 multilabel counted, Wallac). For each concentration of ARDA there were triplicate wells in each independent experiment. IC50 values were calculated by nonlinear regression analysis using GraphPad Prism software.
# PC-3 cells = experiment: Cell growth inhibition (MTT assay), PC-3; assay type: cell-based, human; conditions: Homo sapiens, PC-3 (AR null), means of three experiments, called IC50, read-out: Cytotoxicity GI50 (nM) PC-3
# Excerpt: as §1
# Inhibition of prostate cancer cell proliferation and SAR: The exemplary compounds were then tested for their ability to inhibit cell viability in both the LNCaP (mutant AR) and PC-3 (AR null) cell lines (Table 5).
# as §2
# wild-type AR = biological target: T1, wild-type AR (Homo sapiens, UniProt P10275); experiment: Competitive androgen receptor binding with [3H]-R1881 in PC-3-AR cells; conditions: PC-3-AR cells
# T1 construct: expressed in transfected cells; host or cells: PC-3 (stably transfected, PC-3-AR)
# T1 sequence (P10275 1-920): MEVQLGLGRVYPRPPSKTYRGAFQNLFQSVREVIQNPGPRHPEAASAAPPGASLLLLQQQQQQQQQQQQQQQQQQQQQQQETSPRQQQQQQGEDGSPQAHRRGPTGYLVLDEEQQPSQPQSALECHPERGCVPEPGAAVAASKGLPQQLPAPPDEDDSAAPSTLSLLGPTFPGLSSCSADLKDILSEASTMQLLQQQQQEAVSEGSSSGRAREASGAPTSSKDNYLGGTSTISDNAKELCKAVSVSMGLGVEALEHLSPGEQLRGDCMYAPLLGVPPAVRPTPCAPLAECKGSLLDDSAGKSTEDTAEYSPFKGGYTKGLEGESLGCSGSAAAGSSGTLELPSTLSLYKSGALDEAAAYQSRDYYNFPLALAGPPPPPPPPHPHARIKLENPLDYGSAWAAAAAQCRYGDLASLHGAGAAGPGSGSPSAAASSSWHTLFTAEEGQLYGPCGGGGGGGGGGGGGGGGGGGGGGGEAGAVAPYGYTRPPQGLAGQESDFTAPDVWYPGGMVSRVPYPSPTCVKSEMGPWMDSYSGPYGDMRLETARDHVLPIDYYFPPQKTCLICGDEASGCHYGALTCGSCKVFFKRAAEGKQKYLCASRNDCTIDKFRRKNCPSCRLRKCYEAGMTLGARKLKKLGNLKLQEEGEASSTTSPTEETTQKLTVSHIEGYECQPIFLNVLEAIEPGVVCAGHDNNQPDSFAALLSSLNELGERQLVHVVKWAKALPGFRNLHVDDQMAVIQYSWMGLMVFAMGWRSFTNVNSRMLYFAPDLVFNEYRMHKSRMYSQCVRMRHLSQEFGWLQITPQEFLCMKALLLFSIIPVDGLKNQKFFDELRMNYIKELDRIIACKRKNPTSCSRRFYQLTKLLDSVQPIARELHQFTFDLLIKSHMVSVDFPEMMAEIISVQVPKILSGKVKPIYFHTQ
# Method: (§3) In both cell lines, compounds 9 and 11 were able to effectively compete with labeled R1881 in a dose-dependent fashion (FIG. 11). In PC-3-AR cells compound II reduced [^3H]-R1881 binding by 65% and 80% at 10 μM and 20 μM, respectively. […] Compound 9 reduced [^3H]-R1881 binding by 50% and 65% at 10 μM and 20 μM, respectively, and was equipotent in both cell lines.
# (§4) These assays were performed as previously described.^10
# [1] = tested on: AR-mediated transcription (LNCaP-AR); experiment: Luciferase transactivation assay in LNCaP cells transfected with ARR2-Luc; assay type: cell-based, human; conditions: for effect on luciferase activity, compound alone: without DHT
# Method: FIG. 12. […] Cells in steroid-free medium were treated with vehicle, or increasing concentrations of either 9 or 11 with and without 5 nM DHT for 18 h. Cells were then assayed for luciferase activity using a know assay.^10
# To determine if the compounds act as AR agonists or antagonists, androgen regulated transcriptional activation studies were performed in LNCaP cells transiently transfected with the probasin luciferase reported construct ARR2-Luc.
# as §4
# mutated AR = biological target: T2, mutated AR (Homo sapiens, UniProt P10275, T878A); experiment: Competitive androgen receptor binding with [3H]-R1881 in LNCaP cells
# T2 construct: we utilized the LNCaP cell line which contains a mutant AR; host or cells: LNCaP
# T2 sequence (P10275 1-920 T878A): T1 sequence (P10275 1-920) with T878A
# Method: as §3, §4
SMILES,melting point [°C],"GI50 (LNCaP cells; Homo sapiens, LNCaP) [nM]",GI50 (LNCaP cells) [nM],fold less potent than compound 8 (GI50) (LNCaP cells; LNCaP cells) [fold],fold more potent than compound 6 (GI50) (LNCaP cells; LNCaP cells) [fold],GI50 (PC-3 cells) [nM],reduction of [3H]-R1881 binding (wild-type AR; 10 μM) [%],reduction of [3H]-R1881 binding (wild-type AR; 20 μM) [%],"effect on luciferase activity, compound alone ([1]; 0.1 μM)","reduction of luciferase expression in the presence of DHT ([1]; 10 μM, with 5 nM DHT) [%]","effect on luciferase activity, compound alone ([1]; 10 μM)",reduction of [3H]-R1881 binding (mutated AR; 10 μM) [%],reduction of [3H]-R1881 binding (mutated AR; 20 μM) [%]
"O=[N+]([O-])c1ccccc1NS(=O)(=O)c1ccccc1 [Compound 7, (2-Nitrophenyl)(phenylsulfonyl)amine]",102,14.8,14.1,5,5.6,22900,–,–,–,–,–,–,–
"Cc1ccc(NS(=O)(=O)c2ccc(F)cc2)c([N+](=O)[O-])c1 [Compound 9, [(4-Fluorophenyl)sulfonyl](4-methyl-2-nitrophenyl)amine]",–,2.34,–,–,–,850,50,65,slight increase,50,did not increase,50,65

# From patent publication US7960435B2, “Anti-cancer agents and androgen inhibition activity compound” (University of Maryland, Baltimore, priority 2006, dated 2011)
